# Test results as given in publication PMC7402526, “An in vitro quantitative systems pharmacology approach for deconvolving mechanisms of drug-induced, multilineage cytopenias” (PLoS Computational Biology, 2020).
# Experiments:
# granulocytes (Gran-lin) = assay: MLTA, Gran: concentration-response and QSP model fit; type: cell-based, human; conditions: Homo sapiens, 144 h
# Outline: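 Parameters come from fitting an Emax-based QSP model, with L1 regularization and Emax ranging 0–2, to vehicle-normalized, bead-corrected flow cytometry counts. Counts came from human bone marrow CD34+ cells treated from day 0 through a 6-day multi-lineage cytokine culture in SFEM II, using 2–7 donors per drug.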
# B cells (B-lin) = assay: MLTA, B-lin: concentration-response and QSP model fit; type: cell-based, human; conditions: Homo sapiens, B-cell, 144 h
# Outline: (§1)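 Drug was added at time 0 to thawed human bone marrow CD34+ cells in SFEM II plus a cytokine cocktail. After 6 days at 37°C, subsets were counted by surface-marker flow with TruCount beads. Vehicle-normalized, donor-pooled data then fed an Emax model separating anti-proliferative from cell-killing effects.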
# [1] = system: total dead cells (totalDeadCells); assay: MLTA, total dead cells concentration-response; type: cell-based; conditions: Homo sapiens, 144 h, 6 days, normalized to vehicle control, read-out: total_dead normalized cell count
# Outline: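 Freeze-thawed primary human bone marrow CD34+ cells in SFEM II with cytokine cocktail, drug added day 0, 6 days at 37°C, 5% CO2. Live/dead counts by 17-parameter flow cytometry with DAPI exclusion, bead-normalized, volume-corrected to cells/mL. Normalized per donor to mean of six vehicle wells; 2–7 donors pooled.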
# [2] = system: human bone marrow-derived CD34+ cells differentiated into multiple hematopoietic lineages; assay: MLTA, overall effects across hematopoietic lineages; type: cell-based; conditions: QSP model fit; EmaxT > 1.0 = cell-killing
# Outline: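 Thawed primary human bone marrow CD34+ cells grown in SFEM II with a multi-lineage cytokine cocktail, drug added day 0, 6 days at 37°C, 5% CO2. Subsets counted by 17-parameter flow cytometry with TruCount beads, normalized to six vehicle wells per donor (2–7 donors); Emax model fitted per cell type.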
# [3] = system: multi-potent progenitors (MPPs); assay: MLTA, MPPs: concentration-response and QSP model fit; type: cell-based, human; conditions: Homo sapiens, 144 h
# Outline: as §1
# [4] = system: neutrophils (neutrophil-lin); assay: MLTA, Neut: concentration-response and QSP model fit; type: cell-based, human; conditions: Homo sapiens, Neutrophil, 144 h
# Outline: as §1
# MK cells (MK-lin) = assay: MLTA, MK: concentration-response and QSP model fit; type: cell-based, human; conditions: Homo sapiens, 144 h
# Outline: as §1
# [5] = system: late erythroid cells (Eryth II); assay: MLTA, ErythII: concentration-response and QSP model fit; type: cell-based, human; conditions: Homo sapiens, 144 h
# Outline: as §1
# [6] = system: granulocyte-macrophage progenitor (GMPs); assay: MLTA, GMPs: concentration-response and QSP model fit; type: cell-based, human; conditions: Homo sapiens, 144 h
# Outline: as §1
# [7] = QSP model fit of 6-day MLTA data
smiles,measurement,setting,value
CC(=O)c1c(C)c2cnc(Nc3ccc(N4CCNCC4)cn3)nc2n(C2CCCC2)c1=O [palbociclib],activity at 0.0002 µM,"granulocytes (Gran-lin); dose 0.2 nM, 6 days, normalized to vehicle control, read-out: Gran normalized cell count",94.7%
same,activity at 0.001 µM,"granulocytes (Gran-lin); dose 1 nM, 6 days, normalized to vehicle control, read-out: Gran normalized cell count",93.9%
same,activity at 0.005 µM,"granulocytes (Gran-lin); dose 5 nM, 6 days, normalized to vehicle control, read-out: Gran normalized cell count",88.2%
same,activity at 0.025 µM,"granulocytes (Gran-lin); dose 25 nM, 6 days, normalized to vehicle control, read-out: Gran normalized cell count",53.9%
same,activity at 0.1 µM,"granulocytes (Gran-lin); dose 100 nM, 6 days, normalized to vehicle control, read-out: Gran normalized cell count",21.5%
same,activity at 0.5 µM,"granulocytes (Gran-lin); dose 500 nM, 6 days, normalized to vehicle control, read-out: Gran normalized cell count",4.56%
same,activity at 2.5 µM,"granulocytes (Gran-lin); dose 2500 nM, 6 days, normalized to vehicle control, read-out: Gran normalized cell count",0.37%
same,Emax,"granulocytes (Gran-lin); parameter from QSP model fitting, read-out: Emax_drug_Gran",0.0335%
same,EC50,B cells (B-lin); [7],0.0906 µM
same,activity at 0.0002 µM,"B cells (B-lin); dose 0.2 nM, 6 days, normalized to vehicle control, read-out: B-lin normalized cell count",93.4%
same,activity at 0.001 µM,"B cells (B-lin); dose 1 nM, 6 days, normalized to vehicle control, read-out: B-lin normalized cell count",106%
same,activity at 0.005 µM,"B cells (B-lin); dose 5 nM, 6 days, normalized to vehicle control, read-out: B-lin normalized cell count",76.6%
same,activity at 0.025 µM,"B cells (B-lin); dose 25 nM, 6 days, normalized to vehicle control, read-out: B-lin normalized cell count",67.3%
same,activity at 0.1 µM,"B cells (B-lin); dose 100 nM, 6 days, normalized to vehicle control, read-out: B-lin normalized cell count",41.4%
same,activity at 0.5 µM,"B cells (B-lin); dose 500 nM, 6 days, normalized to vehicle control, read-out: B-lin normalized cell count",13.8%
same,activity at 2.5 µM,"B cells (B-lin); dose 2500 nM, 6 days, normalized to vehicle control, read-out: B-lin normalized cell count",8.85%
same,Emax,"B cells (B-lin); parameter from QSP model fitting, read-out: Emax_drug_B",49.9%
same,activity at 0.0002 µM,[1]; dose 0.2 nM,101%
same,activity at 0.001 µM,[1]; dose 1 nM,102%
same,activity at 0.005 µM,[1]; dose 5 nM,103%
same,activity at 0.025 µM,[1]; dose 25 nM,64.6%
same,activity at 0.1 µM,[1]; dose 100 nM,40.5%
same,activity at 0.5 µM,[1]; dose 500 nM,28.9%
same,activity at 2.5 µM,[1]; dose 2500 nM,22.7%
same,EmaxT effects across cell types (overall statement),[2],anti-proliferation effects on essentially just the HSCs and GMPs
same,activity at 0.0002 µM,"[3]; dose 0.2 nM, 6 days, normalized to vehicle control, read-out: MPPs normalized cell count",86.4%
same,activity at 0.001 µM,"[3]; dose 1 nM, 6 days, normalized to vehicle control, read-out: MPPs normalized cell count",88.4%
same,activity at 0.005 µM,"[3]; dose 5 nM, 6 days, normalized to vehicle control, read-out: MPPs normalized cell count",77.3%
same,activity at 0.025 µM,"[3]; dose 25 nM, 6 days, normalized to vehicle control, read-out: MPPs normalized cell count",45.6%
same,activity at 0.1 µM,"[3]; dose 100 nM, 6 days, normalized to vehicle control, read-out: MPPs normalized cell count",23.3%
same,activity at 0.5 µM,"[3]; dose 500 nM, 6 days, normalized to vehicle control, read-out: MPPs normalized cell count",11%
same,activity at 2.5 µM,"[3]; dose 2500 nM, 6 days, normalized to vehicle control, read-out: MPPs normalized cell count",5.77%
same,Emax,"[3]; parameter from QSP model fitting, read-out: Emax_drug_MPP",0.0264%
same,EC50,[4]; [7],0.075 µM
same,activity at 0.0002 µM,"[4]; dose 0.2 nM, 6 days, normalized to vehicle control, read-out: Neut normalized cell count",95.1%
same,activity at 0.001 µM,"[4]; dose 1 nM, 6 days, normalized to vehicle control, read-out: Neut normalized cell count",93.8%
same,activity at 0.005 µM,"[4]; dose 5 nM, 6 days, normalized to vehicle control, read-out: Neut normalized cell count",74.6%
same,activity at 0.025 µM,"[4]; dose 25 nM, 6 days, normalized to vehicle control, read-out: Neut normalized cell count",51.7%
same,activity at 0.1 µM,"[4]; dose 100 nM, 6 days, normalized to vehicle control, read-out: Neut normalized cell count",21.1%
same,activity at 0.5 µM,"[4]; dose 500 nM, 6 days, normalized to vehicle control, read-out: Neut normalized cell count",3.9%
same,activity at 2.5 µM,"[4]; dose 2500 nM, 6 days, normalized to vehicle control, read-out: Neut normalized cell count",0.666%
same,Emax,"[4]; parameter from QSP model fitting, read-out: Emax_drug_Neut",18.4%
same,EC50,MK cells (MK-lin); [7],0.759 µM
same,activity at 0.0002 µM,"MK cells (MK-lin); dose 0.2 nM, 6 days, normalized to vehicle control, read-out: MK normalized cell count",86%
same,activity at 0.001 µM,"MK cells (MK-lin); dose 1 nM, 6 days, normalized to vehicle control, read-out: MK normalized cell count",96.6%
same,activity at 0.005 µM,"MK cells (MK-lin); dose 5 nM, 6 days, normalized to vehicle control, read-out: MK normalized cell count",89.1%
same,activity at 0.025 µM,"MK cells (MK-lin); dose 25 nM, 6 days, normalized to vehicle control, read-out: MK normalized cell count",91.2%
same,activity at 0.1 µM,"MK cells (MK-lin); dose 100 nM, 6 days, normalized to vehicle control, read-out: MK normalized cell count",62.2%
same,activity at 0.5 µM,"MK cells (MK-lin); dose 500 nM, 6 days, normalized to vehicle control, read-out: MK normalized cell count",23.6%
same,activity at 2.5 µM,"MK cells (MK-lin); dose 2500 nM, 6 days, normalized to vehicle control, read-out: MK normalized cell count",7.89%
same,Emax,"MK cells (MK-lin); parameter from QSP model fitting, read-out: Emax_drug_MK",7.37%
same,EC50,"[5]; QSP model fit of 6-day MLTA data, read-out: EC50ErythII",0.0995 µM
same,activity at 0.0002 µM,"[5]; dose 0.2 nM, 6 days, normalized to vehicle control, read-out: ErythII normalized cell count",89%
same,activity at 0.001 µM,"[5]; dose 1 nM, 6 days, normalized to vehicle control, read-out: ErythII normalized cell count",103%
same,activity at 0.005 µM,"[5]; dose 5 nM, 6 days, normalized to vehicle control, read-out: ErythII normalized cell count",99.1%
same,activity at 0.025 µM,"[5]; dose 25 nM, 6 days, normalized to vehicle control, read-out: ErythII normalized cell count",82.3%
same,activity at 0.1 µM,"[5]; dose 100 nM, 6 days, normalized to vehicle control, read-out: ErythII normalized cell count",56.9%
same,activity at 0.5 µM,"[5]; dose 500 nM, 6 days, normalized to vehicle control, read-out: ErythII normalized cell count",30.3%
same,activity at 2.5 µM,"[5]; dose 2500 nM, 6 days, normalized to vehicle control, read-out: ErythII normalized cell count",14.3%
same,Emax,"[5]; parameter from QSP model fitting, read-out: Emax_drug_ErythroidII",11.8%
same,EC50,[6]; [7],0.0546 µM
same,activity at 0.0002 µM,"[6]; dose 0.2 nM, 6 days, normalized to vehicle control, read-out: GMPs normalized cell count",92.3%
same,activity at 0.001 µM,"[6]; dose 1 nM, 6 days, normalized to vehicle control, read-out: GMPs normalized cell count",94.2%
same,activity at 0.005 µM,"[6]; dose 5 nM, 6 days, normalized to vehicle control, read-out: GMPs normalized cell count",92.5%
same,activity at 0.025 µM,"[6]; dose 25 nM, 6 days, normalized to vehicle control, read-out: GMPs normalized cell count",76.3%
same,activity at 0.1 µM,"[6]; dose 100 nM, 6 days, normalized to vehicle control, read-out: GMPs normalized cell count",53.9%
same,activity at 0.5 µM,"[6]; dose 500 nM, 6 days, normalized to vehicle control, read-out: GMPs normalized cell count",23.9%
same,activity at 2.5 µM,"[6]; dose 2500 nM, 6 days, normalized to vehicle control, read-out: GMPs normalized cell count",4.62%
